Test results reported in ChEMBL document CHEMBL3616389, “Identification of Novel D-Aspartate Oxidase Inhibitors by in Silico Screening and Their Functional and Structural Characterization in Vitro” (J Med Chem, 2015).
Active and inactive are the calls of the source. The calls are words filed in the database; no cut-off is given here.

Tests used:
D-aspartate oxidase [1] = molecular target: T1, D-aspartate oxidase (Homo sapiens, UniProt Q99489); assay: Inhibition of human recombinant DDO expressed in Escherichia coli BL21(DE3) using D-Asp and D-Ala assessed as 2-oxo acid production after 10 mins by colorimetric assay
T1 sequence (Q99489 whole entry): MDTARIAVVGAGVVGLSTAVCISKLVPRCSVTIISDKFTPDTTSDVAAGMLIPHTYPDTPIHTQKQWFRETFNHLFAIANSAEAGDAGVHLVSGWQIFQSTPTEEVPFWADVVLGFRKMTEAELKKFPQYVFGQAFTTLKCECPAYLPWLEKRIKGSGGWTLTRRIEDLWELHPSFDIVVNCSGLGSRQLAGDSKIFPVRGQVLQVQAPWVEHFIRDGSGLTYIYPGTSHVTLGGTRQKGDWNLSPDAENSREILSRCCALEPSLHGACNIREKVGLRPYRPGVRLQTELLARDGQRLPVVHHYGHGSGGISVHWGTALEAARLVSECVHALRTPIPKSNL

D-amino-acid oxidase = D-amino-acid oxidase (Homo sapiens, UniProt P14920); assay: Inhibition of human recombinant DAO expressed in Escherichia coli BL21(DE3) using D-Asp and D-Ala assessed as 2-oxo acid production after 10 mins by colorimetric assay
[2] = molecular target: T2, D-aspartate oxidase (Homo sapiens) (UniProt Q99489); assay: Competitive inhibition of human recombinant DDO expressed in Escherichia coli BL21(DE3) using D-Asp by Lineweaver-Burk plot analysis
T2 sequence (whole entry): T1 sequence (Q99489 whole entry)

[3] = molecular target: T3, D-aspartate oxidase (Rattus norvegicus) (UniProt D3ZDM7); assay: (§1) Inhibition of rat recombinant DDO using D-Asp
T3 sequence (whole entry): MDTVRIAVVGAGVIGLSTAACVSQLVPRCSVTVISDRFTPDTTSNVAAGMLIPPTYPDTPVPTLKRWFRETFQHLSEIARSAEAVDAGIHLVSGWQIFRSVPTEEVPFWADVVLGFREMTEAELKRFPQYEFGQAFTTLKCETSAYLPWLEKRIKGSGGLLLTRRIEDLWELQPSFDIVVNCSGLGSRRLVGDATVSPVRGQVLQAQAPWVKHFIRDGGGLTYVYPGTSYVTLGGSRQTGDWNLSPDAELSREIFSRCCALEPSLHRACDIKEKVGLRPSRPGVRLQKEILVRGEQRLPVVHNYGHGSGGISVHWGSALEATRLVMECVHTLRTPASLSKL

D-aspartate oxidase [4] = molecular target: T4, D-aspartate oxidase (Rattus norvegicus, UniProt D3ZDM7); assay: as §1
T4 sequence (D3ZDM7 whole entry): T3 sequence (whole entry)

D-aspartate oxidase [5] = molecular target: T5, D-aspartate oxidase (Mus musculus, UniProt Q922Z0); assay: Inhibition of mouse recombinant DDO using D-Asp
T5 sequence (Q922Z0 whole entry): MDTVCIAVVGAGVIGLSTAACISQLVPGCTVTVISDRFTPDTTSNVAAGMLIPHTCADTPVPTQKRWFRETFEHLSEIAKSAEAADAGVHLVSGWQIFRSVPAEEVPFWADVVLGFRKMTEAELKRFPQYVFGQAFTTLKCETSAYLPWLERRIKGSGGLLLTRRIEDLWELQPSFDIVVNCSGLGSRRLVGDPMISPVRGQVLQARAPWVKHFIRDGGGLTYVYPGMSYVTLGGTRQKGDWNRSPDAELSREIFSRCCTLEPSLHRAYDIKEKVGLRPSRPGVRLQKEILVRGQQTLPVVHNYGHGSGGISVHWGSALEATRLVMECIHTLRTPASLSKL

HeLa [6] = assay: Effect on L-Asp level in human HeLa cells at 250 uM after 24 hrs by HPLC analysis; format: functional, cell-based
D-aspartate oxidase [7] = molecular target: T1, D-aspartate oxidase
[8] = molecular target: T2, D-aspartate oxidase (Homo sapiens); settings: HeLa, 250 uM
[9] = molecular target: T2, D-aspartate oxidase (Homo sapiens); settings: HeLa, 250 uM; remark: listed apart in the source
[10] = molecular target: T2, D-aspartate oxidase (Homo sapiens); settings: HeLa, 250 uM; remark: listed apart in the source
HeLa [11] = assay: Effect on D-Asp level in human HeLa cells at 1000 uM after 24 hrs by HPLC analysis; format: functional, cell-based
HeLa [12] = assay: Effect on L-Asp level in human HeLa cells at 1000 uM after 24 hrs by HPLC analysis; format: functional, cell-based
[13] = molecular target: T2, D-aspartate oxidase (Homo sapiens); settings: HeLa, 1000 uM
[14] = molecular target: T2, D-aspartate oxidase (Homo sapiens); settings: HeLa, 1000 uM; remark: listed apart in the source
HeLa [15] = assay: Effect on D-Asp level in human HeLa cells at 100 uM after 24 hrs by HPLC analysis; format: functional, cell-based
HeLa [16] = assay: Effect on L-Asp level in human HeLa cells at 100 uM after 24 hrs by HPLC analysis; format: functional, cell-based

D-amino-acid oxidase, sequence (P14920 whole entry): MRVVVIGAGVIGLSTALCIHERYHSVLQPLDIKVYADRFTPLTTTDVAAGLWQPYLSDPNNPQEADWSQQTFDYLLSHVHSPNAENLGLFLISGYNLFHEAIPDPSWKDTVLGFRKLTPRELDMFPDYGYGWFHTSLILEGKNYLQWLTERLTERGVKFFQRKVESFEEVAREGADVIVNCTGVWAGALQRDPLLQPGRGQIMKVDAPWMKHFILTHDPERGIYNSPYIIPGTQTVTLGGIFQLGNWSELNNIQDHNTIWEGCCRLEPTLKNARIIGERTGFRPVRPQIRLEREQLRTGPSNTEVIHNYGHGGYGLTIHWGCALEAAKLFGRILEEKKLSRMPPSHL

| Compound | IC50 (D-aspartate oxidase [1]) | IC50 (D-amino-acid oxidase) | also measured |
| --- | --- | --- | --- |
| O=C(O)c1cc(Cl)ccc1O [5-CHLOROSALICYLIC ACID] | > 10000 µM | 3670 µM | – |
| O=C(O)c1cncc(-c2ccccc2)c1 | > 5000 µM | – | – |
| COc1cncc(C(=O)O)c1 | > 10000 µM | – | – |
| O=C(O)c1cncc(Br)c1 | > 10000 µM | – | – |
| O=C(O)c1cncc(C(=O)O)c1 | > 10000 µM | – | – |
| Nc1cccnc1 | > 10000 µM | > 10000 µM | – |
| O=C(O)c1cncc(O)c1 | 3350 µM | > 10000 µM | – |
| Nc1cncc(C(=O)O)c1 | 21.9 µM | > 2500 µM | inhibition [2]: Active; inhibition [3]: Dose-dependent effect; Ki (D-aspartate oxidase [4]): 5.89 µM; Ki (D-aspartate oxidase [5]): 8.69 µM; Activity (HeLa [6]): inactive; Ki (D-aspartate oxidase [7]): 3.8 µM; inhibition [8]: Active; inhibition [9]: Active; inhibition [10]: inactive |
| O=C(O)c1cncc(C(F)(F)F)c1 | > 10000 µM | – | – |
| Nc1cccc(C(=O)O)c1 [3-AMINOBENZOIC ACID] | > 10000 µM | 392 µM | – |
| NC(=O)c1csc(C(=O)O)c1 | > 5000 µM | 347 µM | – |
| Nc1ccc(C(=O)O)nc1 | > 10000 µM | > 10000 µM | – |
| Nc1cnccc1C(=O)O | > 5000 µM | > 5000 µM | – |
| Cc1ccc(C(=O)O)c(O)n1 | > 10000 µM | > 10000 µM | – |
| O=C(O)c1ccccc1 [BENZOIC ACID] | > 10000 µM | 134 µM | – |
| O=C(O)c1cncc([N+](=O)[O-])c1 | > 10000 µM | – | – |
| O=C(O)c1cncc(F)c1 [5-FLUORONICOTINIC ACID] | > 10000 µM | – | – |
| O=C(O)c1cncc(S(=O)(=O)O)c1 | > 10000 µM | – | – |
| O=C(O)c1cncc(Cl)c1 | > 10000 µM | – | – |
| O=C(O)c1cc(F)ccc1O | > 10000 µM | 1050 µM | – |
| Nc1ccc(Cl)cc1C(=O)O | > 10000 µM | 3930 µM | – |
| O=C(O)c1cn2cnnc2nc1O | – | > 500 µM | inhibition [3]: Dose-dependent effect; Ki (D-aspartate oxidase [4]): 65.9 µM; Ki (D-aspartate oxidase [5]): 32.6 µM; Activity (HeLa [15]): inactive; Activity (HeLa [16]): inactive |
| O=C(O)c1ncccc1O | > 10000 µM | 2480 µM | – |

Now from value to compound, other results behind:

| IC50 (D-aspartate oxidase [1]) | IC50 (D-amino-acid oxidase) | Compound | also measured |
| --- | --- | --- | --- |
| > 100 µM | > 100 µM | Nc1cccc(C(=O)O)n1 | – |
| > 100 µM | > 100 µM | Nc1cc(C(=O)O)ccn1 | – |
| > 100 µM | > 100 µM | Nc1ccnc(C(=O)O)c1 | – |
| > 1000 µM | > 1000 µM | Nc1cccnc1C(=O)O | – |
| 3540 µM | > 10000 µM | CNc1cncc(C(=O)O)c1 | – |
| > 1000 µM | – | CN(C)c1cncc(C(=O)O)c1 | – |
| > 1000 µM | > 1000 µM | Nc1ncccc1C(=O)O | – |
| 2780 µM | 1130 µM | O=C(O)c1cccnc1 [NIACIN] | – |
| 2360 µM | > 2500 µM | Nc1ccc(C(=O)O)cn1 | – |
| 879 µM | > 10000 µM | O=C(O)CC(=O)O [MALONIC ACID] | inhibition [2]: Active; Ki (D-aspartate oxidase [4]): 1560 µM; Ki (D-aspartate oxidase [5]): 1220 µM; Activity (HeLa [11]): inactive; Activity (HeLa [12]): inactive; Ki (D-aspartate oxidase [7]): 153 µM; inhibition [13]: inactive; inhibition [14]: inactive |
| 4250 µM | 1440 µM | Cc1cc(C(=O)O)c(N)s1 | – |
| 5470 µM | 1500 µM | Cc1cncc(C(=O)O)c1 | – |
| > 100 µM | > 100 µM | Nc1ccncc1C(=O)O | – |
| > 1000 µM | 1.34 µM | O=C(O)c1cc2ccccc2n1O | – |
